Experiments:
[1] = target: T1, UDP-glucuronosyltransferase 2B7 (Homo sapiens, UniProt P16662); assay: Drug metabolism assessed as human recombinant UGT2B7-mediated (2S,3S,4S,5R,6S)-6-(2-(4-(4-(tert-butylcarbamoyl)-2-(2-chloro-4-cyclopropylphenylsulfonamido)phenoxy)-5-chloro-2-fluorophenyl)acetoxy)-3,4,5-trihydroxytetrahydro-2H-pyran-2-carboxylic acid formation at 10 uM after 30 mins by LC-MS/MS analysis; type: ADME; conditions: recombinant enzyme, 0.5 h
T1 sequence (P16662 whole entry): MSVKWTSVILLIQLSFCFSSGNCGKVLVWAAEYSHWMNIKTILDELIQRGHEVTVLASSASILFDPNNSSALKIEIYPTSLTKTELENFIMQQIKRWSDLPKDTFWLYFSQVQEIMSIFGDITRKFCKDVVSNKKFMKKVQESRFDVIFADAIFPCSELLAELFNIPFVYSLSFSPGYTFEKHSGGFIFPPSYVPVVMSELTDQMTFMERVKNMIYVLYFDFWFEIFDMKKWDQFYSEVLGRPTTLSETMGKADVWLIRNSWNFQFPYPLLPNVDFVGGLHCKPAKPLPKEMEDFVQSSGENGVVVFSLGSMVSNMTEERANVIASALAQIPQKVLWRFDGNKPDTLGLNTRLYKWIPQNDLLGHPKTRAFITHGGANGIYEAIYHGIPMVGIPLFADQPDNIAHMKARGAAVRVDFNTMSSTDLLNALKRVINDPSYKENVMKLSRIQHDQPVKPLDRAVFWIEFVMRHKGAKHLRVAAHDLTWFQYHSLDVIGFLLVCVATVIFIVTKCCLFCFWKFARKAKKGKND

Cytochrome P450 2C9 = Cytochrome P450 2C9 (Homo sapiens, UniProt P11712); assay: Inhibition of CYP2C9 in human liver microsomes using diclofenac as substrate after 5 to 30 mins by LC-MS/MS analysis; type: ADME
Cytochrome P450 2C19 = Cytochrome P450 2C19 (Homo sapiens, UniProt P33261); assay: Inhibition of CYP2C19 in human liver microsomes using (S)-Mephenytoin as substrate after 5 to 30 mins by LC-MS/MS analysis; type: ADME
Cytochrome P450 2D6 = Cytochrome P450 2D6 (Homo sapiens, UniProt P10635); assay: Inhibition of CYP2D6 in human liver microsomes using dextromethorphan as substrate after 5 to 30 mins by LC-MS/MS analysis; type: ADME
Cytochrome P450 2E1 = Cytochrome P450 2E1 (Homo sapiens, UniProt P05181); assay: Inhibition of CYP2E1 in human liver microsomes using chlorzoxazone as substrate after 5 to 30 mins by LC-MS/MS analysis; type: ADME
Cytochrome P450 3A4 [2] = target: T2, Cytochrome P450 3A4 (Homo sapiens, UniProt P08684); assay: Inhibition of CYP3A4 in human liver microsomes using midazolam as substrate after 5 to 30 mins by LC-MS/MS analysis; type: ADME
Cytochrome P450 3A4 [3] = target: T2, Cytochrome P450 3A4; assay: Inhibition of CYP3A4 in human liver microsomes using testosterone as substrate after 5 to 30 mins by LC-MS/MS analysis; type: ADME
Cytochrome P450 2C8 = target: T3, Cytochrome P450 2C8 (Homo sapiens, UniProt P10632); assay: Biphasic inhibition of CYP2C8 in human liver microsomes assessed as montelukast 36-hydroxylation after 20 mins by LC-MS/MS analysis; type: ADME
T3 sequence (P10632 whole entry): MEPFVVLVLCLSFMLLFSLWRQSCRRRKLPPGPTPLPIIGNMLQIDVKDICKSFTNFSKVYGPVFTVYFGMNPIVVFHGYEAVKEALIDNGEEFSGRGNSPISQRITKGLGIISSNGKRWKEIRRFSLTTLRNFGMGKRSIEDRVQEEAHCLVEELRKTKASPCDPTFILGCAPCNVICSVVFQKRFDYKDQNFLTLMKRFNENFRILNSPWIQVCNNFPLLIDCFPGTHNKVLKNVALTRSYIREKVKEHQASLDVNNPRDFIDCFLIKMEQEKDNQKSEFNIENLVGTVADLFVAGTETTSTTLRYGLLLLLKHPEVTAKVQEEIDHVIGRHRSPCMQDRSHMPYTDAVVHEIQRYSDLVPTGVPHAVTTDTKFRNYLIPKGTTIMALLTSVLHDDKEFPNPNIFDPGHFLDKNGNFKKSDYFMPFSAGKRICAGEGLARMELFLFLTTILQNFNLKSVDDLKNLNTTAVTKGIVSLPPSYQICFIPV

Cytochrome P450 1A2 = target: T4, Cytochrome P450 1A2 (Homo sapiens, UniProt P05177); assay: Inhibition of CYP1A2 in human liver microsomes using phenacetin as substrate after 5 to 30 mins by LC-MS/MS analysis; type: ADME
T4 sequence (P05177 whole entry): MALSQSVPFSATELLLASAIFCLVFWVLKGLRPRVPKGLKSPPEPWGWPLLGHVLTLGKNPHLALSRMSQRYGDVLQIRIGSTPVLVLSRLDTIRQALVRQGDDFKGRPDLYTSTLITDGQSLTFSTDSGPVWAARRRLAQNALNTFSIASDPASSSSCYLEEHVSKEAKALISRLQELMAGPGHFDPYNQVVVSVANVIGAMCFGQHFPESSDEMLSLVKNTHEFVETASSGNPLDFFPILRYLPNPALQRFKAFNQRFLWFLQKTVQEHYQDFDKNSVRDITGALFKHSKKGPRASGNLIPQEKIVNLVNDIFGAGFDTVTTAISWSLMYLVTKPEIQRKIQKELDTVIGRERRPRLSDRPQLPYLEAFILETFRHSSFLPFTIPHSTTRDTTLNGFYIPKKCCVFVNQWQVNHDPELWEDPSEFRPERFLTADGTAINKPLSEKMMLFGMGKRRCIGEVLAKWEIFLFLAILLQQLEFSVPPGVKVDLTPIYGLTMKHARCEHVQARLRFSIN

Cytochrome P450 2B6 = target: T5, Cytochrome P450 2B6 (Homo sapiens, UniProt P20813); assay: Inhibition of CYP2B6 in human liver microsomes using bupropion as substrate after 5 to 30 mins by LC-MS/MS analysis; type: ADME
T5 sequence (P20813 whole entry): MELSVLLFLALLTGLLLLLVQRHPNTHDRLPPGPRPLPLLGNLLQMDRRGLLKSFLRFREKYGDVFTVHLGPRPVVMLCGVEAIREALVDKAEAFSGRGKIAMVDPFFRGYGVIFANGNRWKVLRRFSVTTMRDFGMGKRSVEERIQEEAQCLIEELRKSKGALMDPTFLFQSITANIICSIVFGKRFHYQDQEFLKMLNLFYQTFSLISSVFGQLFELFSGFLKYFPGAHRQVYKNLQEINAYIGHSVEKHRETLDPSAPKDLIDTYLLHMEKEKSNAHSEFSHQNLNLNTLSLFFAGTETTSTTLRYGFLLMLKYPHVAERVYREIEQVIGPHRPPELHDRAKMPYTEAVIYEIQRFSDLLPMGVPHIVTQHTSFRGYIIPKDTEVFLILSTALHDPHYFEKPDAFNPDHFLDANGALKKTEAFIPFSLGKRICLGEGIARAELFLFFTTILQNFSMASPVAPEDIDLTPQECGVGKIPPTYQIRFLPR

Cytochrome P450 3A4 [4] = target: T2, Cytochrome P450 3A4; assay: Drug metabolism assessed as recombinant CYP3A4 (unknown origin)-mediated 2-(5-chloro-4-(2-(2-chloro-4-cyclopropylphenylsulfonamido)-4-(1-hydroxy-2-methylpropan-2-ylcarbamoyl)phenoxy)-2-fluorophenyl)acetic acid formation at 10 uM after 30 mins by LC-MS/MS analysis; type: ADME; conditions: recombinant enzyme, 0.5 h
[5] = Fraction unbound in plasma (unknown origin); type: ADME, cell-free

T2 sequence (P08684 whole entry): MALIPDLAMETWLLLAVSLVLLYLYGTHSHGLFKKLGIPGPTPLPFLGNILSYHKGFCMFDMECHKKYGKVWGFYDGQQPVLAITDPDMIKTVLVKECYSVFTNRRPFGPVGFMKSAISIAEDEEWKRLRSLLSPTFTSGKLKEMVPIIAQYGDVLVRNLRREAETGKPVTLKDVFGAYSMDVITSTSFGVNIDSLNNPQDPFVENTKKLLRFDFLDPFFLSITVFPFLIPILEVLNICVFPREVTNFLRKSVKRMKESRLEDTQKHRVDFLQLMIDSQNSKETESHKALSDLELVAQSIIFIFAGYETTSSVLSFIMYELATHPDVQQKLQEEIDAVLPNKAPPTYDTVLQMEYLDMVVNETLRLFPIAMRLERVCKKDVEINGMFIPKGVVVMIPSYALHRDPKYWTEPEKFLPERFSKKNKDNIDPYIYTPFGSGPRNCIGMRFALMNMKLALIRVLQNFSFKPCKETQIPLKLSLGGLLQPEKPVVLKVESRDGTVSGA
Cytochrome P450 2C9, sequence (P11712 whole entry): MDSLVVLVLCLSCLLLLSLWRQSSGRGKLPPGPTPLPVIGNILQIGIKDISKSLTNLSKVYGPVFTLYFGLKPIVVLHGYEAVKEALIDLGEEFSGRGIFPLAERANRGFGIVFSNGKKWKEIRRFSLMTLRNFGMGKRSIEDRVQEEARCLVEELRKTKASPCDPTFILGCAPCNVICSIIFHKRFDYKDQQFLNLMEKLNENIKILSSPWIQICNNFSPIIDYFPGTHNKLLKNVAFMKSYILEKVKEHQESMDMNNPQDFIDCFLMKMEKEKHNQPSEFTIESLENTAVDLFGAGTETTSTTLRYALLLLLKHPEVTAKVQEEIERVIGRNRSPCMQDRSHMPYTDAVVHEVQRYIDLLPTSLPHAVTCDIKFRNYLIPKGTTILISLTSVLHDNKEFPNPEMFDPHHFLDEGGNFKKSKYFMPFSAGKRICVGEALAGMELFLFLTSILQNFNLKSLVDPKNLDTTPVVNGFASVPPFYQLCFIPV
Cytochrome P450 2E1, sequence (P05181 whole entry): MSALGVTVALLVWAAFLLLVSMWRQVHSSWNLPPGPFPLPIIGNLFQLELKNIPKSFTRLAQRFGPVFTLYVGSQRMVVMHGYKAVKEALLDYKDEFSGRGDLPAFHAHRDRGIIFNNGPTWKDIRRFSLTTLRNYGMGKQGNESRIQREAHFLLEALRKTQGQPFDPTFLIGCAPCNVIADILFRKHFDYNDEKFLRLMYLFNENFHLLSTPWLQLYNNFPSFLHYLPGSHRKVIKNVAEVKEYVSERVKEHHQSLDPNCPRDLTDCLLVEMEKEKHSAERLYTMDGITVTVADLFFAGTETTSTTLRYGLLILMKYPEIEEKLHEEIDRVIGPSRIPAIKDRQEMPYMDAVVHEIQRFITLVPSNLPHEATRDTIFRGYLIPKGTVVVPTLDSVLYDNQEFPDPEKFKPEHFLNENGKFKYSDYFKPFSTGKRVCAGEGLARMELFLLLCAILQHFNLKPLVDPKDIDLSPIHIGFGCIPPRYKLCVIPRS
Cytochrome P450 2D6, sequence (P10635 whole entry): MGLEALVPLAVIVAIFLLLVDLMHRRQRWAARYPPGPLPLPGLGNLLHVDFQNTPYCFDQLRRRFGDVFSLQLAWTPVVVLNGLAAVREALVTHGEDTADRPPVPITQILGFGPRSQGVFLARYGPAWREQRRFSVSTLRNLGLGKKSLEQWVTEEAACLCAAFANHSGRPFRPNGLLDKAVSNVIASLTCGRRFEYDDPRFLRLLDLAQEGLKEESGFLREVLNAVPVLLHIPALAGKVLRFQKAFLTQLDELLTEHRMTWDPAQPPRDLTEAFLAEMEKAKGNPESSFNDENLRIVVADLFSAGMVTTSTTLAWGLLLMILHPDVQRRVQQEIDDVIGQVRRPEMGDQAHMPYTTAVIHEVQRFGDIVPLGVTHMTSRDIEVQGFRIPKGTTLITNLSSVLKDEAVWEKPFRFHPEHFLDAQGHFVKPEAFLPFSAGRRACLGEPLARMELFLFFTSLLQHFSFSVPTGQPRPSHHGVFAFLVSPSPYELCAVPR
Cytochrome P450 2C19, sequence (P33261 whole entry): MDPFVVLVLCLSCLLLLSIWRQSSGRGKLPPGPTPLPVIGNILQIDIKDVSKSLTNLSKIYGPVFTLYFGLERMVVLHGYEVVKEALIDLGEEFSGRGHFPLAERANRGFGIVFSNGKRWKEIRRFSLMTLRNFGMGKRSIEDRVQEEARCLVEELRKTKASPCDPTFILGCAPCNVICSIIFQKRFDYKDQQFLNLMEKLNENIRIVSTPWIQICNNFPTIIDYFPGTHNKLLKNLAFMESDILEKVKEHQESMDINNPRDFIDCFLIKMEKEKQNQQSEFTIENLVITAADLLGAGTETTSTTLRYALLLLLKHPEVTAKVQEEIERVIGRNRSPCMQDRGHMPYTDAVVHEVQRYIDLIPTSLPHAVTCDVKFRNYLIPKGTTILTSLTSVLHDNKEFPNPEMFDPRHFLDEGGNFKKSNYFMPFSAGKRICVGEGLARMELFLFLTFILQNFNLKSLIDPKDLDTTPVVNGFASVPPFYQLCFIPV

| IC50 (Cytochrome P450 2C9) [µM] | Ki (Cytochrome P450 2C9) [µM] | IC50 (Cytochrome P450 2C19) [µM] | Ki (Cytochrome P450 2C19) [µM] | IC50 (Cytochrome P450 2D6) [µM] | Ki (Cytochrome P450 2D6) [µM] | IC50 (Cytochrome P450 2E1) [µM] | Ki (Cytochrome P450 2E1) [µM] | IC50 (Cytochrome P450 3A4 [2]) [µM] | Ki (Cytochrome P450 3A4 [2]) [µM] | IC50 (Cytochrome P450 3A4 [3]) [µM] | Ki (Cytochrome P450 3A4 [3]) [µM] | Ki (Cytochrome P450 2C8) [µM] | IC50 (Cytochrome P450 1A2) [µM] | Ki (Cytochrome P450 1A2) [µM] | IC50 (Cytochrome P450 2B6) [µM] | Ki (Cytochrome P450 2B6) [µM] | Drug metabolism (Cytochrome P450 3A4 [4]) | fraction unbound [5] | SMILES | Drug metabolism [1] |
| --- | --- | --- | --- | --- | --- | --- | --- | --- | --- | --- | --- | --- | --- | --- | --- | --- | --- | --- | --- | --- |
| ≥ 30 | > 30 | ≥ 30 | > 30 | ≥ 30 | > 30 | ≥ 30 | > 30 | ≥ 30 | > 30 | ≥ 30 | > 30 | 1.8 | ≥ 30 | > 30 | ≥ 30 | > 30 | metabolite_detected | 0.003 | CC(C)(C)NC(=O)c1ccc(Oc2cc(F)c(CC(=O)O)cc2Cl)c(NS(=O)(=O)c2ccc(C3CC3)cc2Cl)c1 [VIDUPIPRANT] | metabolite_detected |
|  | > 30 |  | > 30 |  | > 30 |  | > 30 |  | > 30 |  | > 30 | 7.3 |  | > 30 |  | > 30 |  |  | CC(C)(C)NC(=O)c1ccc(Oc2cc(F)c(CC(=O)O[C@@H]3O[C@H](C(=O)O)[C@@H](O)[C@H](O)[C@H]3O)cc2Cl)c(NS(=O)(=O)c2ccc(C3CC3)cc2Cl)c1 |  |

— ChEMBL document CHEMBL3526017, “Predicting the drug interaction potential of AMG 853, a dual antagonist of the D-prostanoid and chemoattractant receptor-homologous molecule expressed on T helper 2 cells receptors” (Drug Metab Dispos, 2012)
